The record followed here is ChEMBL document CHEMBL1743141, “Membrane transporters in drug development” (Nat Rev Drug Discov, 2010).

Common to all, as to assay type: ADME
Data set [1] deals with T1, Multidrug and toxin extrusion protein 2 (Homo sapiens, UniProt Q86VL8).
T1 sequence (Q86VL8 whole entry): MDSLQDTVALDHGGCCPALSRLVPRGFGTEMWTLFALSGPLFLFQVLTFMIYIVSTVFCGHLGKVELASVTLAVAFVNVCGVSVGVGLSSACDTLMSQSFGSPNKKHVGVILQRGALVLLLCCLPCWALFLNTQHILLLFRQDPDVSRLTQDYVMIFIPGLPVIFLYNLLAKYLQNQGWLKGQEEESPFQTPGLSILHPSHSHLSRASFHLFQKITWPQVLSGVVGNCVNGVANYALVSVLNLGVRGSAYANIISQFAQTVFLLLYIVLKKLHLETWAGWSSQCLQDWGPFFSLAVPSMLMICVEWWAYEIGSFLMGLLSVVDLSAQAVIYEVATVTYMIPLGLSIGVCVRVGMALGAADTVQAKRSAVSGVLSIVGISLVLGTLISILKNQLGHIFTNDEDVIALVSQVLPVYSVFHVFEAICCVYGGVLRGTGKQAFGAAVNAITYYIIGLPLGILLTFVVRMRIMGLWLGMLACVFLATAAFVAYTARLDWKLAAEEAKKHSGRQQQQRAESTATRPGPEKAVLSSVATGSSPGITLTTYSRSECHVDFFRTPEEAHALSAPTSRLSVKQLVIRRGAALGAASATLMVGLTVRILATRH
As to the kind of experiment: Substrates of transporters of clinical importance in the absorption and disposition of drugs, MATE2-K.

The target in data set [2] is T2, Solute carrier family 22 member 1 (Homo sapiens, UniProt O15245).
T2 sequence (O15245 whole entry): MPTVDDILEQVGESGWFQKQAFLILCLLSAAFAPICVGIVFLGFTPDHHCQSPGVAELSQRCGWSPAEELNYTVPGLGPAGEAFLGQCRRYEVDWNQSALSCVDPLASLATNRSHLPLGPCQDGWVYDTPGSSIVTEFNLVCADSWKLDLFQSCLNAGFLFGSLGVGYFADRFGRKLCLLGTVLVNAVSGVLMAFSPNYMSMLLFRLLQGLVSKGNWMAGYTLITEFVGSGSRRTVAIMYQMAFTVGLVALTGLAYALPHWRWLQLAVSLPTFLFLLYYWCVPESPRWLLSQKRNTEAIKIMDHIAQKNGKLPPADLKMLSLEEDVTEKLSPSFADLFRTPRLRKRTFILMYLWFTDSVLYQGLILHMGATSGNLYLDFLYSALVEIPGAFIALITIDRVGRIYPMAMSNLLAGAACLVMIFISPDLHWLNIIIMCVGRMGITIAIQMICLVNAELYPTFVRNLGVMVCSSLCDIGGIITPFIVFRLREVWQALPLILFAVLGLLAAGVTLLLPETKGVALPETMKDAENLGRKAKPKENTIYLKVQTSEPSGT
As to the kind of experiment: Substrates of transporters of clinical importance in the absorption and disposition of drugs, OCT1.

In data set [3] the target is T3, Solute carrier family 22 member 2 (Homo sapiens, UniProt O15244).
T3 sequence (O15244 whole entry): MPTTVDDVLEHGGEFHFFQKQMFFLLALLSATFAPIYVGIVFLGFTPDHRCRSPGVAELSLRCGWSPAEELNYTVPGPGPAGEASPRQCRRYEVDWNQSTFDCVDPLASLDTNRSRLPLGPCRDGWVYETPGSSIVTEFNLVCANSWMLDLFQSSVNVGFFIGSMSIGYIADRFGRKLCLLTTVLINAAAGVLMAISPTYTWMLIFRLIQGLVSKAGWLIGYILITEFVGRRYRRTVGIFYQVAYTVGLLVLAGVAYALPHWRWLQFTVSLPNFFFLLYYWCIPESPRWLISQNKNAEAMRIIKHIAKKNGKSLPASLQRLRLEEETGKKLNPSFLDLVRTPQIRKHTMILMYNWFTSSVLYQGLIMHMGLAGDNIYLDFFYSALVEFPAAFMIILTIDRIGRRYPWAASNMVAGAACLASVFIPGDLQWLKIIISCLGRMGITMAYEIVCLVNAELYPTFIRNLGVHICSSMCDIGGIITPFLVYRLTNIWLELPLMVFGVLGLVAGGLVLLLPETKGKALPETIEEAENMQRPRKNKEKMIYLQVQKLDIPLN
As to the kind of experiment: Substrates of transporters of clinical importance in the absorption and disposition of drugs, OCT2.

Data set [4] concerns the target T4, Multidrug and toxin extrusion protein 1 (Homo sapiens, UniProt Q96FL8).
T4 sequence (Q96FL8 whole entry): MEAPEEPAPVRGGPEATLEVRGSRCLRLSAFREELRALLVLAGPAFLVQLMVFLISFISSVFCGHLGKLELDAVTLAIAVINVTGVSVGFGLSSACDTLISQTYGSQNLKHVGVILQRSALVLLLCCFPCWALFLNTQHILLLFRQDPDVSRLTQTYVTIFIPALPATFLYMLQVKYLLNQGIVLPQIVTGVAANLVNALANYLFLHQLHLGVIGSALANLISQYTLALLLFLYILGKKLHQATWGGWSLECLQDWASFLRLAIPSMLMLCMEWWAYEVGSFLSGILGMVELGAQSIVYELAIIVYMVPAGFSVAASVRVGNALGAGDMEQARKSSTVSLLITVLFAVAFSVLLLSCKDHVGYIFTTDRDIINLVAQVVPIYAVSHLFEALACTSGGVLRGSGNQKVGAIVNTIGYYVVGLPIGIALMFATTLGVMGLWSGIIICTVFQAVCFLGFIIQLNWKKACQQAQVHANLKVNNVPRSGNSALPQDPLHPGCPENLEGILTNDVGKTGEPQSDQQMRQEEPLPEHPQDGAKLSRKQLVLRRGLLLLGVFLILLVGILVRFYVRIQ
Nature of the data set: Substrates of transporters of clinical importance in the absorption and disposition of drugs, MATE1.

In data set [5] the target is T5, Broad substrate specificity ATP-binding cassette transporter ABCG2 (Homo sapiens, UniProt Q9UNQ0).
T5 sequence (Q9UNQ0 whole entry): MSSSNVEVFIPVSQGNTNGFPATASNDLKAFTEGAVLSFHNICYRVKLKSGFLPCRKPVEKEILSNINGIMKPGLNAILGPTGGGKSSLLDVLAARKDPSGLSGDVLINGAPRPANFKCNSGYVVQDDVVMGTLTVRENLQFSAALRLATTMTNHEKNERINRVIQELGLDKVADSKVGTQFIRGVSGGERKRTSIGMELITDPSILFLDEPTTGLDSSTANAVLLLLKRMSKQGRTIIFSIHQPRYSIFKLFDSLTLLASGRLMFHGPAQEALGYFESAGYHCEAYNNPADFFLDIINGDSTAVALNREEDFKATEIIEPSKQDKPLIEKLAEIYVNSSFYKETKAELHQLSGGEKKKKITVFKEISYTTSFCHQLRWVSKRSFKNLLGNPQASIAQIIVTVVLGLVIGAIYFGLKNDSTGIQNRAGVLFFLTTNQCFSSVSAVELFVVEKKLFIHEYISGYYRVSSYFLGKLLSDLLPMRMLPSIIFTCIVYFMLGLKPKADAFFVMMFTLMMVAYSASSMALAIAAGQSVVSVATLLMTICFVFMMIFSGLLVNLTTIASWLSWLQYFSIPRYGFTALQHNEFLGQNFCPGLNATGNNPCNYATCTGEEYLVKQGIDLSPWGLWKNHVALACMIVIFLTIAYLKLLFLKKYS
Nature of the data set: Substrates of transporters of clinical importance in the absorption and disposition of drugs, BCRP.

Data set [6] has as its target ATP-binding cassette sub-family C member 2 (Homo sapiens, UniProt Q92887). As to the kind of experiment: Substrates of transporters of clinical importance in the absorption and disposition of drugs, MRP2.
The target of data set [7] is T6, Solute carrier organic anion transporter family member 1A2 (Homo sapiens, UniProt P46721).
T6 sequence (P46721 whole entry): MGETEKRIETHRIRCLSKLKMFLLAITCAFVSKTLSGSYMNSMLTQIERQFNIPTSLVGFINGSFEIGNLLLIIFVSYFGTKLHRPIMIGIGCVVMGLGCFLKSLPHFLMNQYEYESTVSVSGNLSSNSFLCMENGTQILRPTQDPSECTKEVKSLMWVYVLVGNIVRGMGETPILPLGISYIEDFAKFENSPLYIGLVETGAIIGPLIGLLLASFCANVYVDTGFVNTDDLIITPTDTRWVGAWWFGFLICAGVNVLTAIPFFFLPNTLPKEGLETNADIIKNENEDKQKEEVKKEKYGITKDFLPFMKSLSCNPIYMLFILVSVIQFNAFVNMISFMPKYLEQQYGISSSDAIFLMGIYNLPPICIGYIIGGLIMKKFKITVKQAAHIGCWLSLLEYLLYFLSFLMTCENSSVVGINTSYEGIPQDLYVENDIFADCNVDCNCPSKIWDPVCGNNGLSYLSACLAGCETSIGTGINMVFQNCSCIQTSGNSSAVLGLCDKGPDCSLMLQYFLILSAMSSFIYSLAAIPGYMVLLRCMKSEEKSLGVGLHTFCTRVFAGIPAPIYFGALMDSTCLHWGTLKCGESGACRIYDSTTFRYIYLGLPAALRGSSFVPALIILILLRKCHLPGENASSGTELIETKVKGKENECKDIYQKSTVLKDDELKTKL
Nature of the data set: Inhibitors of transporters of clinical importance in the absorption and disposition of drugs, OATP1A2.

The target of data set [8] is T3, Solute carrier family 22 member 2. Nature of the data set: Inhibitors of transporters of clinical importance in the absorption and disposition of drugs, OCT2.
For data set [9], the target named is T7, ATP-binding cassette sub-family C member 4 (Homo sapiens, UniProt O15439).
T7 sequence (O15439 whole entry): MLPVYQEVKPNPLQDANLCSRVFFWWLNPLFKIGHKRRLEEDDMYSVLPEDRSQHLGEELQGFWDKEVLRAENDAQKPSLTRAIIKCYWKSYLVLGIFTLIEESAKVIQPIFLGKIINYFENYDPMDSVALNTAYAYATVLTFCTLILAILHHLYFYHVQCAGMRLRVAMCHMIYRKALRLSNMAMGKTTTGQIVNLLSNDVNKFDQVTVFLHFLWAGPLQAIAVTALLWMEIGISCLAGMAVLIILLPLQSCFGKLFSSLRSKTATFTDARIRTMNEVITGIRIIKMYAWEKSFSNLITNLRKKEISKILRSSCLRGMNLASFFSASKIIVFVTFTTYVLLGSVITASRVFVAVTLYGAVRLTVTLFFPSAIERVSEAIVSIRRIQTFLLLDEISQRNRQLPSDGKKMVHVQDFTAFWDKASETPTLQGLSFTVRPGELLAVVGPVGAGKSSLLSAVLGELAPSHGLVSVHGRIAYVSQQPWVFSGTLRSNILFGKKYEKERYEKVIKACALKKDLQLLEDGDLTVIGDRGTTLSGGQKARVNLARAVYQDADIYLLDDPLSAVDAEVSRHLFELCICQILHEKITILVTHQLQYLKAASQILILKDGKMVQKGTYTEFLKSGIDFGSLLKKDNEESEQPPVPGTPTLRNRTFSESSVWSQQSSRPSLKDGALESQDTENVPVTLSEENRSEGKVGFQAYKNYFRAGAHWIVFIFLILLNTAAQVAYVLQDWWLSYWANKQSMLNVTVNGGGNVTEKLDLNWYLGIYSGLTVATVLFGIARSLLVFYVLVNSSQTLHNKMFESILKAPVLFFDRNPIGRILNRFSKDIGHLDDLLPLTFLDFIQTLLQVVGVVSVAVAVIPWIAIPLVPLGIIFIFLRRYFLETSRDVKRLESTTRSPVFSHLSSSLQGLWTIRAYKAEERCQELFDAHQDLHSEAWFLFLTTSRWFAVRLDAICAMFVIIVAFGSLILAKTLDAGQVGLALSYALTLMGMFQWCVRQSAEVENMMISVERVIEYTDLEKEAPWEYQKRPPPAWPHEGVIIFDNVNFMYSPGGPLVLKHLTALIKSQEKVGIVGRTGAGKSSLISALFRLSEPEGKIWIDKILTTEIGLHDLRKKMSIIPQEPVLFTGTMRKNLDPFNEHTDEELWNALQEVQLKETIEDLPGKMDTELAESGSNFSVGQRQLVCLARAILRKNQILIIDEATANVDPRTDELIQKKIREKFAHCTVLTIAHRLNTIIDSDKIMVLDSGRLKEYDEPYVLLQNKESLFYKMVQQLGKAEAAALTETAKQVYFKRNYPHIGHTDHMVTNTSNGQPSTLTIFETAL
Nature of the data set: Substrates of transporters of clinical importance in the absorption and disposition of drugs, MRP4.

Sequence of ATP-binding cassette sub-family C member 2 (Q92887 whole entry): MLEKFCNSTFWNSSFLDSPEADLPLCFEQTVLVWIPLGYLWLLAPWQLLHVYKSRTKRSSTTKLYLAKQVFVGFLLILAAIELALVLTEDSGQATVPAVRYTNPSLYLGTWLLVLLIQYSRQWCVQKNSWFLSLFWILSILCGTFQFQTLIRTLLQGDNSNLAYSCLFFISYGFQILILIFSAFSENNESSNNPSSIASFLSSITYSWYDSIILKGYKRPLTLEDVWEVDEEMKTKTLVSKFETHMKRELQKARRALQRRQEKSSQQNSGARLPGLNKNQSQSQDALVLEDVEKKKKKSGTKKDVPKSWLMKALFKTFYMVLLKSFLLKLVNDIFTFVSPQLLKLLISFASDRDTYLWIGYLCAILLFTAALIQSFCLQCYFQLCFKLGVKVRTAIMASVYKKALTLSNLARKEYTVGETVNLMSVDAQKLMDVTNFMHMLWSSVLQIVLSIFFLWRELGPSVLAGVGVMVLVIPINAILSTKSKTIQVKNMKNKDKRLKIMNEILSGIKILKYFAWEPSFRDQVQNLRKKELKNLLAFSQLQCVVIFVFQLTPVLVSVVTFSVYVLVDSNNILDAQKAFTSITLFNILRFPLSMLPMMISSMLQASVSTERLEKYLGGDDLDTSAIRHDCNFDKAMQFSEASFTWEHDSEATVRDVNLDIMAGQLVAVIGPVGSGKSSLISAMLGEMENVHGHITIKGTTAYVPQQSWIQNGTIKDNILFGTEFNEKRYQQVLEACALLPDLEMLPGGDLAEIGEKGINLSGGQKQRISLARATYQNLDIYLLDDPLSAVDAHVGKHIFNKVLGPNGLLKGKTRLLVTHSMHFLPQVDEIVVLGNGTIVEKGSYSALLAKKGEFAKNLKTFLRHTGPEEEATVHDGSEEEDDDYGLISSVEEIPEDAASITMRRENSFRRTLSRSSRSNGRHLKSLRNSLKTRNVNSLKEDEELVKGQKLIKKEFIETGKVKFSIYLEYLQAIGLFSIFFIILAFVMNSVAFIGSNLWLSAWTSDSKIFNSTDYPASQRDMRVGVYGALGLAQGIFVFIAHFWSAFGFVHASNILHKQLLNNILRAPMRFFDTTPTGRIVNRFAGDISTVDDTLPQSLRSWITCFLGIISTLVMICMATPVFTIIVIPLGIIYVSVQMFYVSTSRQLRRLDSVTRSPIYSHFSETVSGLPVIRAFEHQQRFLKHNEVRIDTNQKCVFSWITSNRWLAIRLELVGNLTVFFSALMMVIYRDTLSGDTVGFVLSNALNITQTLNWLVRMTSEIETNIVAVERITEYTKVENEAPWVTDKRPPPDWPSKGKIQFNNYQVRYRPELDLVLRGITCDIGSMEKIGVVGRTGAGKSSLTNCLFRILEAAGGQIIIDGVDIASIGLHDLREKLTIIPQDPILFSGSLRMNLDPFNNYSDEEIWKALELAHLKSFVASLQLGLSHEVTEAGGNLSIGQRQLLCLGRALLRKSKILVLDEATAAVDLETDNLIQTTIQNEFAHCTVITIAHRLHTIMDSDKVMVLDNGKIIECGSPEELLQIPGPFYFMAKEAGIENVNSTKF

As to `C[n+]1ccccc1`, the Activity result in data set [1], in data set [2], in [3] and in data set [4] was “transporter substrate” in each case.
`CN(C)C(=N)N=C(N)N` [METFORMIN]: the Activity result in data set [1], in [2], in data set [3] and in data set [4] was “transporter substrate” in each case.
For the molecule `O=C1c2c(O)ccc(O)c2C(=O)c2c(NCCNCCO)ccc(NCCNCCO)c21` [MITOXANTRONE], the Activity result in data set [5] and in data set [6] was “transporter substrate” each time.
For the molecule `C[C@@H]1O[C@@H](O[C@H]2[C@H](Oc3cc(O)c4c(c3)O[C@H](c3ccc(O)cc3)CC4=O)O[C@H](CO)[C@@H](O)[C@@H]2O)[C@H](O)[C@H](O)[C@H]1O` [NARINGIN], the Activity result in [7] is given as “transporter inhibitor”.
For `C[C@]12CC[C@H]3[C@@H](CCC4=CC(=O)CC[C@@]43C)[C@@H]1CC[C@@H]2O` [TESTOSTERONE], the Activity result in data set [8] is reported as “transporter inhibitor”.
Consider `CC[N+](CC)(CC)CC` [TETRYLAMMONIUM], for which the Activity entry in data set [1], in [2], in [3] and in data set [4] was “transporter substrate” in each case.
In the case of `CC[C@@]1(O)C(=O)OCc2c1cc1n(c2=O)Cc2cc3c(CN(C)C)c(O)ccc3nc2-1` [TOPOTECAN], the Activity result in data set [9] and in data set [5] was “transporter substrate” each time.
